# Results as given in patent publication US20250136553A1, “ACYLSULFONAMIDE KAT6A INHIBITORS” (Olema Pharmaceuticals, Inc., priority 2023, published 2025).
# pIC50: −log10 of the molar value.
# Molecular target: human-KAT6A (MYST domain 507-778 aa) (Homo sapiens (Human), UniProt Q92794)
# Experiment: KAT6A biochemical assay (TR-FRET)
# Conditions: @ 1 μM; reported where IC50 could not be determined; read-out: Percent inhibition at specific concentration (KAT6A)
# Method in brief: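 KAT6A MYST domain preincubated with compound 30 min at 25° C, then reacted 60 min at 25° C with 200 nM biotin-H4 peptide and 600 nM acetyl-CoA (final). Europium anti-acetyl-lysine/streptavidin-APC TR-FRET read (Ex 340, Em 615/665 nm); % inhibition from 665/615 ratio, IC50 by sigmoidal fit.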
# Sequence of human-KAT6A (MYST domain 507-778 aa) (Q92794 507-778): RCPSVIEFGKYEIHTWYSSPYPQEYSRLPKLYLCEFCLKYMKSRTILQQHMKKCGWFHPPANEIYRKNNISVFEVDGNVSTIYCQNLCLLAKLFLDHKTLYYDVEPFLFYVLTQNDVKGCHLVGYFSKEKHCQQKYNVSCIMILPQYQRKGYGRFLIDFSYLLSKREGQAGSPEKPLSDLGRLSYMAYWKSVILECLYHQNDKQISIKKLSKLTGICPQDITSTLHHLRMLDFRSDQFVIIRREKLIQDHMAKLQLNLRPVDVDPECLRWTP
row,inhibition at 1 µM [%],SMILES
1,46,"COc1nc(C(=O)N[S@](=N)(=O)c2ccccc2F)ccc1Cn1cccn1 [Compound 307b, (S)-5-((1H-pyrazol-1-yl)methyl)-N-(2-fluorophenylsulfonimidoyl)-6-methoxypicolinamide]"

# Same assay, conditions: TR-FRET; histone H4 peptide 200 nM, acetyl-CoA 600 nM; read-out: KAT6A IC50
row,SMILES,pIC50
1,"COc1cc(C(=O)N[S@](=N)(=O)c2c(OC)ccc(Cl)c2OC)ccc1Cn1cccn1 [Compound 302b, (S)-4-((1H-pyrazol-1-yl)methyl)-N-(3-chloro-2,6-dimethoxyphenylsulfonimidoyl)-3-methoxybenzamide]",6.52
2,"COc1nc(C(=O)N[S@@](=N)(=O)c2cccc3c2OCC3)ccc1Cn1cccn1 [Compound 303a, (R)-5-((1H-pyrazol-1-yl)methyl)-N-(2,3-dihydrobenzofuran-7-sulfonimidoyl)-6-methoxypicolinamide]",7.59
3,"COc1nc(C(=O)N[S@](=N)(=O)c2cccc3c2OCC3)ccc1Cn1cccn1 [Compound 303b, (S)-5-((1H-pyrazol-1-yl)methyl)-N-(2,3-dihydrobenzofuran-7-sulfonimidoyl)-6-methoxypicolinamide]",6.97
4,"COc1nc(C(=O)N[S@@](=N)(=O)c2ccccc2F)ccc1Cn1cccn1 [Compound 307a, (R)-5-((1H-pyrazol-1-yl)methyl)-N-(2-fluorophenylsulfonimidoyl)-6-methoxypicolinamide]",6.97
5,"COc1nc(C(=O)N[S@@](=N)(=O)c2c(F)cccc2F)ccc1Cn1cccn1 [Compound 308a, (R)-5-((1H-pyrazol-1-yl)methyl)-N-(2,6-difluorophenylsulfonimidoyl)-6-methoxypicolinamide]",5.80
6,"COc1cc(C(=O)NS(=O)(=O)c2cc(Cl)cc3c2OCC3)ccc1Cn1cccn1 [Compound 309, 4-((1H-pyrazol-1-yl)methyl)-N-((5-chloro-2,3-dihydrobenzofuran-7-yl)sulfonyl)-3-methoxybenzamide]",7.77
7,"COc1cc(C(=O)NS(=O)(=O)c2ccc3c(c2)CCO3)ccc1Cn1cccn1 [Compound 310, 4-((1H-pyrazol-1-yl)methyl)-N-((2,3-dihydrobenzofuran-5-yl)sulfonyl)-3-methoxybenzamide]",6.95
8,"COc1ccc(S(=O)(=O)NC(=O)c2ccc(Cn3cccn3)c(OC)c2)cc1Cl [Compound 311, 4-((1H-pyrazol-1-yl)methyl)-N-((3-chloro-4-methoxyphenyl)sulfonyl)-3-methoxybenzamide]",6.87
9,"COc1cc(C(=O)NS(=O)(=O)c2ccccc2OC2CC2)ccc1Cn1cccn1 [Compound 313, 4-((1H-pyrazol-1-yl)methyl)-N-((2-cyclopropoxyphenyl)sulfonyl)-3-methoxybenzamide]",7.49
10,"COc1cc(C(=O)NS(=O)(=O)c2cccc3c2OC(C)C3)ccc1Cn1cccn1 (stereo not drawn) [Compound 314, 4-((1H-pyrazol-1-yl)methyl)-3-methoxy-N-((2-methyl-2,3-dihydrobenzofuran-7-yl)sulfonyl)benzamide]",7.89

# Results, then the compound that gave them:
row,pIC50,SMILES
1,7.74,"COc1cc(C(=O)N[S@@](=N)(=O)c2c(OC)ccc(C)c2OC)ccc1Cn1cccn1 [Compound 304a, (R)-4-((1H-pyrazol-1-yl)methyl)-N-(2,6-dimethoxy-3-methylphenylsulfonimidoyl)-3-methoxybenzamide]"
2,6.89,"COc1cc(C(=O)N[S@](=N)(=O)c2c(OC)ccc(C)c2OC)ccc1Cn1cccn1 [Compound 304b, (S)-4-((1H-pyrazol-1-yl)methyl)-N-(2,6-dimethoxy-3-methylphenylsulfonimidoyl)-3-methoxybenzamide]"
3,7.82,"COc1cccc(F)c1[S@](=N)(=O)NC(=O)c1ccc(Cn2cccn2)c(OC)n1 [Compound 305a, (R)-5-((1H-pyrazol-1-yl)methyl)-N-(2-fluoro-6-methoxyphenylsulfonimidoyl)-6-methoxypicolinamide]"
4,6.50,"COc1cccc(F)c1[S@@](=N)(=O)NC(=O)c1ccc(Cn2cccn2)c(OC)n1 [Compound 305b, (S)-5-((1H-pyrazol-1-yl)methyl)-N-(2-fluoro-6-methoxyphenylsulfonimidoyl)-6-methoxypicolinamide]"
5,7.92,"COc1cc(C)cc(OC)c1[S@](=N)(=O)NC(=O)c1ccc(Cn2cccn2)c(OC)n1 [Compound 306a, (R)-5-((1H-pyrazol-1-yl)methyl)-N-(2,6-dimethoxy-4-methylphenylsulfonimidoyl)-6-methoxypicolinamide]"
6,6.55,"COc1cc(C)cc(OC)c1[S@@](=N)(=O)NC(=O)c1ccc(Cn2cccn2)c(OC)n1 [Compound 306b, (S)-5-((1H-pyrazol-1-yl)methyl)-N-(2,6-dimethoxy-4-methylphenylsulfonimidoyl)-6-methoxypicolinamide]"
7,7.31,"COc1nc(C(=O)N[S@](=N)(=O)c2c(F)cccc2F)ccc1Cn1cccn1 [Compound 308b, (S)-5-((1H-pyrazol-1-yl)methyl)-N-(2,6-difluorophenylsulfonimidoyl)-6-methoxypicolinamide]"
